Data from EP1351977B1, “ANTIMICROBIAL PSEUDOPEPTIDES” (INSTITUT NATIONAL DE LA RECHERCHE AGRONOMIQUE (INRA), priority 2001, dated 2004).
Read-outs that look alike come from different tables or passages of the source. Ends that are not written are not given here.

Columns and labels:
Type in all cases: cell-based
Escherichia coli CIP548 = experiment: Bacterial growth inhibition test in Petri dish (solid medium), MIC; settings: MIC extrapolated from inhibition diameter vs log10 concentration
Salmonella sp. = experiment: as above; settings: MIC extrapolated from inhibition diameter vs log10 concentration
Protocol: Deux tests ont été utilisés pour mesurer l'activité antibactérienne des pseudopeptides, un test d'inhibition de la croissance bactérienne en microplaques (de 96 puits) en milieu liquide et un test d'inhibition de la croissance bactérienne en boîte de Pétri en milieu solide. • * Test en microplaques: La culture bactérienne à tester est prélevée en phase exponentielle, puis diluée au 1/500^ème dans du milieu liquide TSB frais. Chaque puits de la microplaque est rempli avec 100 µl de suspension bactérienne diluée. Dans le premier puits, 100 µl de l'échantillon de pseudopeptide à tester est ajouté à la suspension bactérienne, puis l'échantillon est dilué de 2 en 2 en transférant d'un puits à l'autre 100 µl de suspension. La lecture de la microplaque se fait en mesurant la densité optique à […] (DO600nm) après 24h d'incubation à 28°C ou 37°C selon les bactéries cibles. Connaissant la concentration en pseudopeptide de l'échantillon de départ, ce test permet de déterminer la valeur de la CMI (Concentration Minimale d'Inhibition de la croissance bactérienne). Dans ce test, la CMI correspond à la concentration de l'échantillon pour lequel la DO600nm est inférieure à celle du témoin de culture. • * Test en boîte de Pétri: La culture bactérienne à tester est prélevée en phase exponentielle, puis incorporée à 10 ml d'une gélose dite "sous-couche" (Agarose 1% poids/vol; NaCl 100 mM; Trypcase 0.03 % poids/vol; Tampon phosphate 10 mM pH7.4) à raison de 2.10^5 bactéries/ml. Le mélange est coulé dans une boîte de Pétri ordinaire. 9 puits d'environ 10 µl de volume sont formés dans la "sous-couche" à l'aide d'un embout de pipette stérile de 10 ml. Ces puits sont remplis avec une série de dilutions des pseudopeptides à tester (concentration initiale 500 µg/ml, et dilution de deux en deux jusqu'à 1,95 µg/ml). Après diffusion à température ambiante pendant 2h, une gélose dite "sur-couche" (Agarose 1% wt/vol; Trypcase 6 % wt/vol; Tampon phosphate 10 mM pH7.4) est ajoutée sur la sous-couche à raison de 5 à 10 ml. Après solidification, l'ensemble est mis à incuber pendant une nuit. Le diamètre d'inhibition de la culture bactérienne autour de chaque puits est mesuré en mm; il existe une relation linéaire entre le diamètre d'inhibition et le log10 de la concentration en pseudopeptide qui permet de déterminer par extrapolation la valeur de la CMI.
Une première série de résultats a été obtenue en utilisant le test en boîte de Pétri vis-à-vis de bactéries non pathogènes issues de la collection de Travaux pratiques du laboratoire de Pathologie Comparée de l'Université de Montpellier (France). Dans cette série, les pseudopeptides des pics 5, 7, 8,10 et 11 ont été testés (Tableau 4).

Klebsiella pneumoniae = experiment: as above; settings: MIC extrapolated from inhibition diameter vs log10 concentration
[1] = test system: Proteus vulgaris CIP58.60; experiment: as above; settings: MIC extrapolated from inhibition diameter vs log10 concentration
Serratia entomophila = experiment: as above; settings: MIC extrapolated from inhibition diameter vs log10 concentration
Staphylococcus aureus = experiment: as above; settings: MIC extrapolated from inhibition diameter vs log10 concentration
Pseudomonas fluorescens = experiment: as above; settings: MIC extrapolated from inhibition diameter vs log10 concentration
Bacillus megaterium = experiment: as above; settings: MIC extrapolated from inhibition diameter vs log10 concentration
Alternaria brassicae = experiment: Antifungal growth inhibition test in liquid medium
Botrytis cinerea sp = experiment: Antifungal growth inhibition test in liquid medium
Botrytis cinerea myc = experiment: Antifungal growth inhibition test in liquid medium
Cladosporium sp = experiment: Antifungal growth inhibition test in liquid medium
Cladosporium myc = experiment: Antifungal growth inhibition test in liquid medium
[2] = test system: Helminthosporium teres sp; experiment: Antifungal growth inhibition test in liquid medium
Rhizoctonia solani myc = experiment: Antifungal growth inhibition test in liquid medium
Fusarium culmorum sp = experiment: Antifungal growth inhibition test in liquid medium
Description: (§1) Les composés des pics 5, 7 et 8 de la figure 1 ont été testées vis-à-vis d'un ensemble de champignons phytopathogènes. Trois doses (10, 20, et 40 ppm) ont été employées pour chacun des composés.
(§2) L'activité antifongique a été détectée par un test d'inhibition de croissance en milieu liquide. Les spores des champignons à tester ont été mises en suspension dans un milieu de culture de type "Pomme de terre-Glucose". De préférence, on utilise 12 g de milieu Potato Dextrose Broth (Difco) pour 1 litre d'eau déminéralisée. Deux antibiotiques ont été rajoutés au milieu de culture: la tétracycline (concentration finale de 10 µg/ml) et la céfotaxime (100 µg/ml). On dépose 10 µl de chaque composé à tester dans des plaques de microtitration en présence de 90 µl de milieu de culture contenant les spores (à une concentration finale de 10^4 spores/ml). L'incubation a été réalisée en chambre humide à 30°C durant 48 heures. La croissance fongique a été observée au microscope photonique après 24 h et quantifiée après 48 heures par mesure de l'absorbance à 600 nm à l'aide d'un spectrophotomètre lecteur de plaque de microtitration. L'activité des composés contre les champignons phytopathogènes est exprimée par un pourcentage d'inhibition de croissance correspondant à 100 x (1 - absorbance avec produit/ absorbance du témoin sans produit), l'absorbance étant mesurée à 600 nm, 5 jours après le début de l'expérience.

Phytophthora myc = experiment: Antifungal growth inhibition test in liquid medium
Description: as §1, §2

Piricularia oryzae sp = test system: Piricularia oryzae sp
Septoria tritici sp = experiment: Antifungal growth inhibition test in liquid medium
[3] = test system: Staphylococcus epidermidis; experiment: Bacterial growth inhibition test in Petri dish (solid medium), MIC; settings: MIC extrapolated from inhibition diameter vs log10 concentration
Streptococcus Gr. D = experiment: as above; settings: MIC extrapolated from inhibition diameter vs log10 concentration

## Composé 11: pseudopeptide du pic n° 11 de Xenorhabdus nematophilus F1; Famille 1: Lys Lys Lys Lys Lys Gly; 1080 Da; isomère de masse du pic 7 (KKKKKG; also: pseudopeptide modifications, not given here)
Escherichia coli CIP548
  CMI: 15 µg/mL
Salmonella sp.
  CMI: 15 µg/mL
Klebsiella pneumoniae
  CMI: 30 µg/mL
[1]
  CMI: 200 µg/mL
Serratia entomophila
  CMI: 30 µg/mL
Staphylococcus aureus
  CMI: 7,5 µg/ml
Pseudomonas fluorescens
  CMI: 1,5 µg/ml
Bacillus megaterium
  CMI: 0,75 µg/ml

## Composé 7: pseudopeptide du pic n° 7 de Xenorhabdus nematophilus F1; Famille 2: Lys Lys Lys Lys Arg Gly; 1080 Da; isomère de masse du pic 11 (KKKKRG; also: pseudopeptide modifications)
Alternaria brassicae; 10 ppm
  pourcentage d'inhibition de croissance: 25%
Alternaria brassicae; 20 ppm
  pourcentage d'inhibition de croissance: 47%
Alternaria brassicae; 40 ppm
  pourcentage d'inhibition de croissance: 83%
Botrytis cinerea sp; 10 ppm
  pourcentage d'inhibition de croissance: 53%
Botrytis cinerea sp; 20 ppm
  pourcentage d'inhibition de croissance: 12%
Botrytis cinerea sp; 40 ppm
  pourcentage d'inhibition de croissance: 83%
Botrytis cinerea myc; 10 ppm
  pourcentage d'inhibition de croissance: 0%
Botrytis cinerea myc; 20 ppm
  pourcentage d'inhibition de croissance: 6%
Botrytis cinerea myc; 40 ppm
  pourcentage d'inhibition de croissance: 34%
Cladosporium sp; 10 ppm
  pourcentage d'inhibition de croissance: 74%
Cladosporium sp; 20 ppm
  pourcentage d'inhibition de croissance: 95%
Cladosporium sp; 40 ppm
  pourcentage d'inhibition de croissance: 95%
Cladosporium myc; 10 ppm
  pourcentage d'inhibition de croissance: 0%
Cladosporium myc; 20 ppm
  pourcentage d'inhibition de croissance: 40%
Cladosporium myc; 40 ppm
  pourcentage d'inhibition de croissance: 91%
[2]; 10 ppm
  pourcentage d'inhibition de croissance: 33%
[2]; 20 ppm
  pourcentage d'inhibition de croissance: 47%
[2]; 40 ppm
  pourcentage d'inhibition de croissance: 80%
Rhizoctonia solani myc; 10 ppm
  pourcentage d'inhibition de croissance: 6%
Rhizoctonia solani myc; 20 ppm
  pourcentage d'inhibition de croissance: 7%
Rhizoctonia solani myc; 40 ppm
  pourcentage d'inhibition de croissance: 64%
Fusarium culmorum sp; 10 ppm
  pourcentage d'inhibition de croissance: 66%
Fusarium culmorum sp; 20 ppm
  pourcentage d'inhibition de croissance: 97%
Fusarium culmorum sp; 40 ppm
  pourcentage d'inhibition de croissance: 97%
Phytophthora myc; 10 ppm
  pourcentage d'inhibition de croissance: 71%
Phytophthora myc; 20 ppm
  pourcentage d'inhibition de croissance: 81%
Phytophthora myc; 40 ppm
  pourcentage d'inhibition de croissance: 78%
Piricularia oryzae sp; 10 ppm
  pourcentage d'inhibition de croissance: 12%
Piricularia oryzae sp; 20 ppm
  pourcentage d'inhibition de croissance: 15%
Piricularia oryzae sp; 40 ppm
  pourcentage d'inhibition de croissance: 21%
Septoria tritici sp; 10 ppm
  pourcentage d'inhibition de croissance: 0%
Septoria tritici sp; 20 ppm
  pourcentage d'inhibition de croissance: 86%
Septoria tritici sp; 40 ppm
  pourcentage d'inhibition de croissance: 89%
Escherichia coli CIP548
  CMI: 15 µg/mL
Salmonella sp.
  CMI: 15 µg/mL
Klebsiella pneumoniae
  CMI: 30 µg/mL
[1]
  CMI: 100 µg/mL
Serratia entomophila
  CMI: 60 µg/mL
Staphylococcus aureus
  CMI: 15 µg/mL
Pseudomonas fluorescens
  CMI: 1,5 µg/ml
Bacillus megaterium
  CMI: 1,5 µg/ml

## Composé 5: pseudopeptide du pic n° 5 (HPLC, Figure 1) de Xenorhabdus nematophilus F1; Famille 1: Lys Lys Lys Lys Lys Gly; 1052 Da (KKKKKG; also: pseudopeptide modifications)
Alternaria brassicae; 10 ppm
  pourcentage d'inhibition de croissance: 82%
Alternaria brassicae; 20 ppm
  pourcentage d'inhibition de croissance: 84%
Alternaria brassicae; 40 ppm
  pourcentage d'inhibition de croissance: 83%
Botrytis cinerea sp; 10 ppm
  pourcentage d'inhibition de croissance: 38%
Botrytis cinerea sp; 20 ppm
  pourcentage d'inhibition de croissance: 95%
Botrytis cinerea sp; 40 ppm
  pourcentage d'inhibition de croissance: 95%
Botrytis cinerea myc; 10 ppm
  pourcentage d'inhibition de croissance: 21%
Botrytis cinerea myc; 20 ppm
  pourcentage d'inhibition de croissance: 34%
Botrytis cinerea myc; 40 ppm
  pourcentage d'inhibition de croissance: 60%
Cladosporium sp; 10 ppm
  pourcentage d'inhibition de croissance: 94%
Cladosporium sp; 20 ppm
  pourcentage d'inhibition de croissance: 94%
Cladosporium sp; 40 ppm
  pourcentage d'inhibition de croissance: 94%
Cladosporium myc; 10 ppm
  pourcentage d'inhibition de croissance: 89%
Cladosporium myc; 20 ppm
  pourcentage d'inhibition de croissance: 90%
Cladosporium myc; 40 ppm
  pourcentage d'inhibition de croissance: 89%
[2]; 10 ppm
  pourcentage d'inhibition de croissance: 70%
[2]; 20 ppm
  pourcentage d'inhibition de croissance: 91%
[2]; 40 ppm
  pourcentage d'inhibition de croissance: 95%
Rhizoctonia solani myc; 10 ppm
  pourcentage d'inhibition de croissance: 9.7%
Rhizoctonia solani myc; 20 ppm
  pourcentage d'inhibition de croissance: 85%
Rhizoctonia solani myc; 40 ppm
  pourcentage d'inhibition de croissance: 93%
Fusarium culmorum sp; 10 ppm
  pourcentage d'inhibition de croissance: 96%
Fusarium culmorum sp; 20 ppm
  pourcentage d'inhibition de croissance: 96%
Fusarium culmorum sp; 40 ppm
  pourcentage d'inhibition de croissance: 96%
Phytophthora myc; 10 ppm
  pourcentage d'inhibition de croissance: 79%
Phytophthora myc; 20 ppm
  pourcentage d'inhibition de croissance: 78%
Phytophthora myc; 40 ppm
  pourcentage d'inhibition de croissance: 77%
Piricularia oryzae sp; 10 ppm
  pourcentage d'inhibition de croissance: 18%
Piricularia oryzae sp; 20 ppm
  pourcentage d'inhibition de croissance: 22%
Piricularia oryzae sp; 40 ppm
  pourcentage d'inhibition de croissance: 45%
Septoria tritici sp; 10 ppm
  pourcentage d'inhibition de croissance: 88%
Septoria tritici sp; 20 ppm
  pourcentage d'inhibition de croissance: 88%
Septoria tritici sp; 40 ppm
  pourcentage d'inhibition de croissance: 85%
Escherichia coli CIP548
  CMI: 15 µg/mL
Salmonella sp.
  CMI: 30 µg/mL
Klebsiella pneumoniae
  CMI: 30 µg/mL
[1]
  CMI: 200 µg/mL
Serratia entomophila
  CMI: 60 µg/mL
Staphylococcus aureus
  CMI: 7,5 µg/ml
[3]
  CMI: 30 µg/mL
Streptococcus Gr. D
  CMI: 200 µg/mL
Pseudomonas fluorescens
  CMI: 3 µg/mL
Bacillus megaterium
  CMI: 0,75 µg/ml

## Polymixine [reference compound]
Escherichia coli CIP548
  CMI: 0,25 µg/ml
Salmonella sp.
  CMI: 0,5 µg/ml
[1]
  CMI: 50 µg/mL
Staphylococcus aureus
  CMI: 20 µg/mL
[3]
  CMI: 20 µg/mL

## Composé 10: pseudopeptide du pic n° 10 de Xenorhabdus nematophilus F1; Famille 2: Lys Lys Lys Lys Arg Gly; 1094 Da; structure en Figure 3 (KKKKRG; also: pseudopeptide modifications, not given here)
Escherichia coli CIP548
  CMI: 7,5 µg/ml
Salmonella sp.
  CMI: 30 µg/mL
Klebsiella pneumoniae
  CMI: 15 µg/mL
[1]
  CMI: 200 µg/mL
Serratia entomophila
  CMI: 15 µg/mL
Staphylococcus aureus
  CMI: 7,5 µg/ml
Pseudomonas fluorescens
  CMI: 1,5 µg/ml
Bacillus megaterium
  CMI: 0,75 µg/ml
